Patent US20050282745A1, “Non-mammalian GnRH analogs and uses thereof in regulation of fertility and pregnancy” (priority 2001, published 2005)
Non-standard residues stand in square brackets, D forms with d. Residues, ends and D or L forms follow the SMILES beside them. *: point of attachment. dPhe(4-Cl) = N[C@H](Cc1ccc(Cl)cc1)C(=O)O; d2Nal = N[C@H](Cc1ccc2ccccc2c1)C(=O)O; Lys(iPr) = CC(C)NCCCC[C@H](N)C(=O)O; d3Pal = N[C@H](Cc1cccnc1)C(=O)O; pGlu = O=C1CC[C@@H](C(=O)O)N1; Nicotinoyl = O=C(c1cccnc1)*

How the values were obtained:
[1] = test system: chorionic peptidase-1 (C-ase-1); assay: C-ase-1 enzyme activity assay, competition for degradation of GnRH; conditions: for relative potency of inhibition of C-ase-1 degradation of GnRH, compared to GnRH: Example V; for Ki: competition for degradation of mammalian GnRH
[2] = test system: chorionic peptidase-1 (C-ase-1)
[3] = test system: placental homogenate; assay: Degradation in whole placental homogenate; format: in vitro ADME, human
Method: Studies using whole placental homogenate were also performed. […] The competition by the newly synthesized non-mammalian GnRH analogs as compared to mammalian GnRH (SEQ ID NO: 5) was then studied to confirm the C-ase-1 studies above. […] (FIG. 3)
The stability of these analogs in the present of whole placental homogenates was examined. The ethylamide derivative has a slowed degradation rate as compared to GnRH, but can be degraded.

[4] = test system: human placental GnRH receptor; assay: Placental GnRH receptor binding, 125I-Buserelin label; conditions: for receptor activity/potency compared with GnRH: 125I-Buserelin, Example VI
Method: The newly synthesized non-mammalian GnRH analogs and other commercially available mammalian GnRH analogs were used in placental receptors binding and enzyme stability study described here. […] GnRH receptors were purified from the membrane fractions from placentas. The purification procedure for the placental GnRH receptor was performed using a modification of the method described by Bramley et al., which reference is specifically incorporated herein by reference for the purpose. Addition of enzyme inhibitors for the endogenous C-ase-1 were used as well as agents for receptor stabilization. Initially, receptor-binding assays using ^125I-Buserelin as label were performed. The competitive binding of each of the analogs was studied over a dose range of 10^−11 to 10^−6 M. Incubation was at room temperature and receptor bound label was precipitated with polyethylene glycol. Specific and non-specific binding was determined. The data was subjected to Scatchard analysis. The non-mammalian GnRH analogs' ability to bind to the placental GnRH receptor was compared to that for synthetic mammalian GnRH (SEQ ID NO: 5), Buserelin (SEQ ID NO: 10) and other mammalian analogs. […] This way, the receptor affinity for that analog could be precisely determined. Receptors from three different term placentas were used to study each of these analogs. […] Bramley T A, McPhie C A, Menzies G S 1994 Human placental gonadotropin-releasing hormone (GnRH) binding sites: 111. […] Placenta 15:733-745.
In these and additional studies, placental GnRH receptors were purified from human term placentas after homogenization in 40 mM Tris (pH 7.4) and filtered through cheesecloth, followed by an initial centrifugation at 1,000×g for 10 minutes. The resulting supernatant was, again, centrifuged at 35,000×g for 30 minutes and the membrane pellet was collected and resuspended in Tris buffer with 0.3 M sucrose. The protein concentration was determined. Membranes were stored frozen at −20 C until use. Before use, placental membranes were diluted to 5,000 μg/mL with Tris buffer containing 0.5% BSA and 50 U/mL bacitracin. […] Following incubation at room temperature for 4 hours, the bound and free hormones were separated using polyethylene glycol precipitation, followed by centrifugation. The binding affinity for each GnRH isoform or analog was calculated using the double reciprocal plot of bound versus free ligand. Each study was done using three different human term placental tissues.
Receptor assays were performed by incubating human term placental GnRH receptors with varying concentrations of GnRH or its analogs in the presence of ^125I-Buserelin. The reaction was stopped and the bound hormone precipitated with polyethylene glycol.

[5] = test system: pregnant baboons; assay: Pregnant baboons, mini-pump days 14-21 post ovulation; format: in vivo, baboon
Method: Mammalian GnRH analogs, ZOLADEX™ (Goserelin acetate) and Organon 30276, were administered to pregnant baboons via mini-pump on days 14 through 21 post ovulation. The hormonal release and pregnancy outcome was compared to saline treated controls. […] In a dose-response saline-controlled study using very high doses of mammalian GnRH analog, a small stimulation of hCG in very early pregnancy was observed by the present inventor.

CC(=O)N[C@H](Cc1ccc2ccccc2c1)C(=O)N[C@H](Cc1ccc(Cl)cc1)C(=O)N[C@H](Cc1cccnc1)C(=O)N[C@@H](CO)C(=O)N[C@@H](CCCCNC(=O)c1cccnc1)C(=O)N[C@H](CCCCNC(=O)c1cccnc1)C(=O)N[C@@H](CC(C)C)C(=O)N[C@@H](CCCCNC(C)C)C(=O)N1CCC[C@H]1C(=O)N[C@H](C)C(N)=O [Antide] (Ac-[d2Nal][dPhe(4-Cl)][d3Pal]SK(Nicotinoyl)[dK](Nicotinoyl)L[Lys(iPr)]P[dA]-NH2; N-terminus and C-terminus assumed)
relative potency of inhibition of C-ase-1 degradation of GnRH, compared to GnRH [1]: 0.6 | potency as competitor compared with salmon or chicken II GnRHs ([1]; Example VII): two-fold more potent | potency as competitor for GnRH degradation by C-ase-1 compared with GnRH ([1]; Example VII): three-fold less potent | degradation by / competition for C-ase-1, in words [2]: degraded with reduced activity

CCNC(=O)[C@@H]1CCCN1C(=O)[C@H](Cc1ccc(O)cc1)NC(=O)[C@H](Cc1c[nH]c2ccccc12)NC(=O)CNC(=O)[C@H](Cc1c[nH]cn1)NC(=O)[C@H](CO)NC(=O)[C@H](Cc1c[nH]c2ccccc12)NC(=O)[C@H](Cc1c[nH]cn1)NC(=O)[C@@H]1CCC(=O)N1 [chicken II GnRH ethylamide, chicken II GnRH-^10 ethylamide] ([pGlu]HWSHGWYP-NHEt)
stability in whole placental homogenates [3]: more stable than the mammalian GnRH analogs | receptor activity/potency compared with GnRH [4]: 33 fold

NC(=O)CNC(=O)[C@@H]1CCCN1C(=O)[C@H](Cc1ccc(O)cc1)NC(=O)[C@H](Cc1c[nH]c2ccccc12)NC(=O)CNC(=O)[C@H](Cc1c[nH]cn1)NC(=O)[C@H](CO)NC(=O)[C@H](Cc1c[nH]c2ccccc12)NC(=O)[C@H](Cc1c[nH]cn1)NC(=O)[C@@H]1CCC(=O)N1 [chicken II GnRH] ([pGlu]HWSHGWYPG-NH2; C-terminus assumed)
degradation/competition relative to mammalian GnRH ([1]; Example III): one-sixth | relative potency of inhibition of C-ase-1 degradation of GnRH, compared to GnRH [1]: 0.2 | Ki ([1]; Example III): 0.2 µM | stability in whole placental homogenates [3]: more stable than the mammalian GnRH analogs | receptor binding potency compared with chicken II GnRH isoform or Buserelin ([4]; Buserelin label, Example II): equipotent to Buserelin | receptor binding potency compared with mammalian GnRH ([4]; Buserelin label, Example II): three-fold more potent

CCNC(=O)[C@@H]1CCCN1C(=O)[C@H](CCCNC(=N)N)NC(=O)[C@H](CC(C)C)NC(=O)[C@@H](Cc1c[nH]c2ccccc12)NC(=O)[C@H](Cc1ccc(O)cc1)NC(=O)[C@H](CO)NC(=O)[C@H](Cc1c[nH]c2ccccc12)NC(=O)[C@H](Cc1c[nH]cn1)NC(=O)[C@@H]1CCC(=O)N1 [^6D-Trp-GnRH-^10 ethylamide]
receptor activity/potency compared with GnRH [4]: twice as active

CCNC(=O)[C@@H]1CCCN1C(=O)[C@H](Cc1ccc(O)cc1)NC(=O)[C@H](Cc1c[nH]c2ccccc12)NC(=O)[C@@H](CCCNC(=N)N)NC(=O)[C@H](Cc1c[nH]cn1)NC(=O)[C@H](CO)NC(=O)[C@H](Cc1c[nH]c2ccccc12)NC(=O)[C@H](Cc1c[nH]cn1)NC(=O)[C@@H]1CCC(=O)N1 [D-Arg-chicken II GnRH-ethylamide, D-Arg (6)-chicken II GnRH-des-Gly (10)-ethylamide] ([pGlu]HWSH[dR]WYP-NHEt)
Ki ([1]; Example III): > 0.2 µM

chicken II GnRH-^10 aza-Gly-amide
degradation by / competition for C-ase-1, in words [2]: resistant to degradation

CCNC(=O)[C@@H]1CCCN1C(=O)[C@H](CCCNC(=N)N)NC(=O)[C@H](CC(C)C)NC(=O)CNC(=O)[C@H](Cc1ccc(O)cc1)NC(=O)[C@H](CO)NC(=O)[C@H](Cc1c[nH]c2ccccc12)NC(=O)[C@H](Cc1c[nH]cn1)NC(=O)[C@@H]1CCC(=O)N1 [des-Gly^10-GnRH-ethylamide] ([pGlu]HWSYGLRP-NHEt)
degradation by / competition for C-ase-1, in words [2]: potent competitive inhibitors

CC(C)C[C@H](NC(=O)[C@H](CO)NC(=O)[C@H](Cc1ccc(O)cc1)NC(=O)[C@H](Cc1c[nH]cn1)NC(=O)[C@@H]1CCC(=O)N1)C(=O)N[C@@H](CCC(=O)O)C(=O)N[C@@H](Cc1c[nH]c2ccccc12)C(=O)N[C@@H](CCCCN)C(=O)N1CCC[C@H]1C(=O)NCC(N)=O [lamprey GnRH] ([pGlu]HYSLEWKPG-NH2)
relative potency of inhibition of C-ase-1 degradation of GnRH, compared to GnRH [1]: 1.5 | potency as competitor for GnRH degradation by C-ase-1 compared with GnRH ([1]; Example VII): as or even more potent than GnRH

CC(C)C[C@H](NC(=O)[C@@H](COC(C)(C)C)NC(=O)[C@H](Cc1ccc(O)cc1)NC(=O)[C@H](CO)NC(=O)[C@H](Cc1c[nH]c2ccccc12)NC(=O)[C@H](Cc1cnc[nH]1)NC(=O)[C@@H]1CCC(=O)N1)C(=O)N[C@@H](CCCNC(=N)N)C(=O)N1CCC[C@H]1C(=O)NNC(N)=O [ZOLADEX, Goserelin acetate]
abortions ([5]; in vivo): not consistently effected | pregnancy outcome ([5]; in vivo): in most animals pregnancy outcomes were jeopardized | CG and progesterone ([5]; vs saline controls): decreased

CC(C)C[C@H](NC(=O)[C@H](Cc1c[nH]c2ccccc12)NC(=O)CNC(=O)[C@H](Cc1ccc(O)cc1)NC(=O)[C@H](CO)NC(=O)[C@H](Cc1c[nH]c2ccccc12)NC(=O)[C@H](Cc1c[nH]cn1)NC(=O)[C@@H]1CCC(=O)N1)C(=O)N1CCC[C@H]1C(=O)NCC(N)=O [salmon GnRH] ([pGlu]HWSYGWLPG-NH2)
relative potency of inhibition of C-ase-1 degradation of GnRH, compared to GnRH [1]: 0.2

CCNC(=O)[C@@H]1CCCN1C(=O)[C@H](CCCNC(=N)N)NC(=O)[C@H](CC(C)C)NC(=O)[C@@H](CC(C)C)NC(=O)[C@H](Cc1ccc(O)cc1)NC(=O)[C@H](CO)NC(=O)[C@H](Cc1c[nH]c2ccccc12)NC(=O)[C@H](Cc1c[nH]cn1)NC(=O)[C@@H]1CCC(=O)N1 [MAMMALIAN D-LEU (6), EA (10), des-Gly^10, D-Leu^6-GnRH-ethylamide]
degradation by / competition for C-ase-1, in words [2]: potent competitive inhibitors

^9OH-Pro-GnRH
relative potency of inhibition of C-ase-1 degradation of GnRH, compared to GnRH [1]: 1.5 | potency as competitor for GnRH degradation by C-ase-1 compared with GnRH ([1]; Example VII): as or even more potent than GnRH

CCNC(=O)[C@@H]1CCCN1C(=O)[C@H](CCCNC(=N)N)NC(=O)[C@H](CC(C)C)NC(=O)[C@@H](Cc1cn(Cc2ccccc2)cn1)NC(=O)[C@H](Cc1ccc(O)cc1)NC(=O)[C@H](CO)NC(=O)[C@H](Cc1c[nH]c2ccccc12)NC(=O)[C@H](Cc1cnc[nH]1)NC(=O)[C@@H]1CCC(=O)N1 [^6Im-btl-D-His-GnRH^10 ethylamide, des-Gly^10-Im-Btl-D-His^6-GnRH-ethylamide]
receptor activity/potency compared with GnRH [4]: half the potency | receptor activity/potency compared with GnRH ([4]; listed as 6Im-btl-D-His-GnRH-^10 ethylamide): half the potency | receptor activity/potency compared with GnRH ([4]; listed as Im-Btl-His(6) analog): reduced receptor potency | degradation by / competition for C-ase-1, in words [2]: resistant to degradation
